In the kinase profiling compilation of Christmann-Franck et al. (2016):

Legend:
Assay in all cases: radiometric filter-binding kinase assay, Kinase HotSpot
Details in all cases: compound 0.5 µM; ATP 10 µM
YES1 (human) = YES1 (human) (UniProt P07947)
SRC (human) = SRC (human) (UniProt P12931)
MAP3K10 (human) = MAP3K10 (human) (UniProt Q02779)
MAP2K2 (human) = MAP2K2 (human) (UniProt P36507)
GSK3A (human) = GSK3A (human) (UniProt P49840)
MAP3K7 TAB1 (human) = MAP3K7 TAB1 (human) (UniProt O43318+Q15750)
EPHA7 (human) = EPHA7 (human) (UniProt Q15375)
EPHB1 (human) = EPHB1 (human) (UniProt P54762)
EPHB1 (human), sequence (P54762 whole entry, looked up): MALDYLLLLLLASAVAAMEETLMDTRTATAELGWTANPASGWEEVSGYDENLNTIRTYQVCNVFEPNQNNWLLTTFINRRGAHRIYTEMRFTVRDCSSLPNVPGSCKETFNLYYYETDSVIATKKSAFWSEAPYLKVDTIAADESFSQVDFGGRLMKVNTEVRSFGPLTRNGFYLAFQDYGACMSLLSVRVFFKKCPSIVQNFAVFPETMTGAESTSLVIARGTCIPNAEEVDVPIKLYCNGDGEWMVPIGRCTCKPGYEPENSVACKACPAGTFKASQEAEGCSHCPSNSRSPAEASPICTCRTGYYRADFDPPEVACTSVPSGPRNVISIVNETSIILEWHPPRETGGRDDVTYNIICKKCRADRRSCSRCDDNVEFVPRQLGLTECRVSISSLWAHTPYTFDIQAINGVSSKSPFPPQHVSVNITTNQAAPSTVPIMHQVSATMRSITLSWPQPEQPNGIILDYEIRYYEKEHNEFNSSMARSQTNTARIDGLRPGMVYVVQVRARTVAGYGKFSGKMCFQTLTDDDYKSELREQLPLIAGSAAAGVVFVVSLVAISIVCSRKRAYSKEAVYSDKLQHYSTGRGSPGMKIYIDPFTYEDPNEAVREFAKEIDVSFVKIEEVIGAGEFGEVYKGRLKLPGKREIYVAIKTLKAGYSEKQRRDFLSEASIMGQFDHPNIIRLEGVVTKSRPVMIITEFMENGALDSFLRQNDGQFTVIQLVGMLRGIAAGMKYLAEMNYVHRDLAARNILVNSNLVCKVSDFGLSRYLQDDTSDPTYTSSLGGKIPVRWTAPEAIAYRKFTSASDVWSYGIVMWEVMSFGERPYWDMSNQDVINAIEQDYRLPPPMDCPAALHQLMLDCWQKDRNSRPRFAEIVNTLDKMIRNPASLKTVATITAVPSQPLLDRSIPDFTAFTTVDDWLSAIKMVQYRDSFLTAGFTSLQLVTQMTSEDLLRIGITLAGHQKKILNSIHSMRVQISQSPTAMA

PLK1 (human) = PLK1 (human) (UniProt P53350)
PLK1 (human), sequence (P53350 whole entry, looked up): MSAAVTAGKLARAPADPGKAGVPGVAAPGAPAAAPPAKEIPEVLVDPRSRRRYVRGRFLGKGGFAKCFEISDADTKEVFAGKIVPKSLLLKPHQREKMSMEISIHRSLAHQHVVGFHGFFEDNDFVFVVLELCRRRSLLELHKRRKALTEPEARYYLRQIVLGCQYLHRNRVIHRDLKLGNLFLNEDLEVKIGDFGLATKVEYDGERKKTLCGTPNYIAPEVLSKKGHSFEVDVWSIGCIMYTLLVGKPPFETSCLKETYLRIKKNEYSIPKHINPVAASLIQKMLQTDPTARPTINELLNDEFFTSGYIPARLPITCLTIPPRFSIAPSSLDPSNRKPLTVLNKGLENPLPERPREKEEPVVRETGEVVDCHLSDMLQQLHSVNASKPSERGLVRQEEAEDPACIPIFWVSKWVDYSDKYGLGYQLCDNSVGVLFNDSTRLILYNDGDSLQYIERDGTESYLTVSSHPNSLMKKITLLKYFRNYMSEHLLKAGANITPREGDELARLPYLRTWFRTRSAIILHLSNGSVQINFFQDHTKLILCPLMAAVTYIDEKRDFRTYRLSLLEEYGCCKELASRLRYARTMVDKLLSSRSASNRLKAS

PRKACA (human) = PRKACA (human) (UniProt P17612)
TEC (human) = TEC (human) (UniProt P42680)
MARK3 (human) = MARK3 (human) (UniProt P27448)
CAMK1 (human) = CAMK1 (human) (UniProt Q14012)
CAMK1 (human), sequence (Q14012 whole entry, looked up): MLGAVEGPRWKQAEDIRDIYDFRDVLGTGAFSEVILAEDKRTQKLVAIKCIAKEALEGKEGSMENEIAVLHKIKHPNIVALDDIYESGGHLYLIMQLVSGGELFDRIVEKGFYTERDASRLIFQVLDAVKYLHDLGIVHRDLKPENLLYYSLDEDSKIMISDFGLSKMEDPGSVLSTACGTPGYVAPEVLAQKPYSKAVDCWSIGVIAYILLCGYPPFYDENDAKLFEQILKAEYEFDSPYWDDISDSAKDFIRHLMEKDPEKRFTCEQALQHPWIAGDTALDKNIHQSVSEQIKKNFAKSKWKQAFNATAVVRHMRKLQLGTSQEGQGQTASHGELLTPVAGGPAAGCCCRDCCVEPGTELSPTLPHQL

AURKA (human) = AURKA (human) (UniProt O14965)
AURKA (human), sequence (O14965 whole entry, looked up): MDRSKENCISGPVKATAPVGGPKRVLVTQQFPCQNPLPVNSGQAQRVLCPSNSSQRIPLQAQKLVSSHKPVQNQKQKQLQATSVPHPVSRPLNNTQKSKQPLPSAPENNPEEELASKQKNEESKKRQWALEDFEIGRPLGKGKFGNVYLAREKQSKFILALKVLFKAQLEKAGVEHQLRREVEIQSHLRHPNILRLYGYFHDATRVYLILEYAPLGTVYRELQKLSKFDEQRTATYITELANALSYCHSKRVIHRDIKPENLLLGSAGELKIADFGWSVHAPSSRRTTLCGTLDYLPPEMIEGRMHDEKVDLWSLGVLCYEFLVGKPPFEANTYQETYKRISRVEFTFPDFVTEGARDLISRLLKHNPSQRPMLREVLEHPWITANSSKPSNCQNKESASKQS

DYRK3 (human) = DYRK3 (human) (UniProt O43781)
PIM1 (human) = PIM1 (human) (UniProt P11309)
HIPK3 (human) = HIPK3 (human) (UniProt Q9H422)
HIPK3 (human), sequence (Q9H422 whole entry, looked up): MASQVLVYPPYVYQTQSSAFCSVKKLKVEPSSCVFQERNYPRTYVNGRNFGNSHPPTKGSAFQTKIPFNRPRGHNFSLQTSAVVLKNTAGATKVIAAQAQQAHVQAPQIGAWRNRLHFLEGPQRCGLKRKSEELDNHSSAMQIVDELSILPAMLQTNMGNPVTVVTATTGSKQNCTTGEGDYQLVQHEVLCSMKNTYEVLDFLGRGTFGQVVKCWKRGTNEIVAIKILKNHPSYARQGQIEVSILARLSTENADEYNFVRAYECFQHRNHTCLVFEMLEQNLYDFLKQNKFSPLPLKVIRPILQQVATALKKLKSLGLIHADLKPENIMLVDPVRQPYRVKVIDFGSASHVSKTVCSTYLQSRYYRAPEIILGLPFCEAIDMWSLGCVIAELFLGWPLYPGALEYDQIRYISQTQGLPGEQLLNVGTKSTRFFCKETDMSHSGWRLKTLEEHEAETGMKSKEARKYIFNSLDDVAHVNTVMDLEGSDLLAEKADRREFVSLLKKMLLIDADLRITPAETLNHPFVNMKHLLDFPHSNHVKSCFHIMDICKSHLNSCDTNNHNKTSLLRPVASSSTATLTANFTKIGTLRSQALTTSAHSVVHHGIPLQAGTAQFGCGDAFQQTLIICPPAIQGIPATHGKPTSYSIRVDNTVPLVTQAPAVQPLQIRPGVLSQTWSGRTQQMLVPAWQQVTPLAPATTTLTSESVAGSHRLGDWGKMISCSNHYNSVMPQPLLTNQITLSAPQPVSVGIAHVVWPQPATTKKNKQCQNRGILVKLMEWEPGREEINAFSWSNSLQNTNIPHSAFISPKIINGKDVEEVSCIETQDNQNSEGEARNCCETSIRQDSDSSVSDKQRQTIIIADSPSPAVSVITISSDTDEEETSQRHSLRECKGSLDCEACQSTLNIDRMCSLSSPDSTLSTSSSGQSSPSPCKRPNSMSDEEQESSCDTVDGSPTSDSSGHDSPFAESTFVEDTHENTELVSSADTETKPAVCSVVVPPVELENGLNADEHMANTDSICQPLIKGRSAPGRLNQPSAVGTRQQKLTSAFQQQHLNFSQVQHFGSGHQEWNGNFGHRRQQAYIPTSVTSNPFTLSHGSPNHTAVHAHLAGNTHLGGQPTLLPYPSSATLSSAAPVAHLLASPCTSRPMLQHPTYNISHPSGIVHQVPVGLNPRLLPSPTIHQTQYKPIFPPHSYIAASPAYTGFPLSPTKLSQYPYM

CDK4 CCND1 (human) = CDK4 CCND1 (human) (UniProt P24385+P11802)
CDK4 CCND1 (human), sequence (P11802 whole entry, looked up): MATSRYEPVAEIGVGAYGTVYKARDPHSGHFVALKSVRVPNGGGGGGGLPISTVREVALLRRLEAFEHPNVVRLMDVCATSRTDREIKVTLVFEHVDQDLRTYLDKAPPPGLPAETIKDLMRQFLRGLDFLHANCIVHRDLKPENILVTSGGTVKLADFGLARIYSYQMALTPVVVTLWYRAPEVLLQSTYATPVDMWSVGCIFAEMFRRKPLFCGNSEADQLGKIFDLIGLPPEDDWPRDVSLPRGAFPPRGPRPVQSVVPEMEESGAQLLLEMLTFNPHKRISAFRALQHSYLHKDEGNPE
CDK4 CCND1 (human), sequence (P24385 whole entry, looked up): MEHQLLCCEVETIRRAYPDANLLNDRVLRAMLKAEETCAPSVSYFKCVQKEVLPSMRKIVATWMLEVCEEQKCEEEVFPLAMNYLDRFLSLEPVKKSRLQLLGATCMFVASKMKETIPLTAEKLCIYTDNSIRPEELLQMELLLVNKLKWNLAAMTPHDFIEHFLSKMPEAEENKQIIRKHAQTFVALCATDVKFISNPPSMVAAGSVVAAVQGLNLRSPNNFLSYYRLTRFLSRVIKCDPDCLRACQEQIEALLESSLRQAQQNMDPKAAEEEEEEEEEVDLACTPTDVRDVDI

PRKD2 (human) = PRKD2 (human) (UniProt Q9BZL6)
MAP3K2 (human) = MAP3K2 (human) (UniProt Q9Y2U5)
IRAK4 (human) = IRAK4 (human) (UniProt Q9NWZ3)
IRAK4 (human), sequence (Q9NWZ3 whole entry, looked up): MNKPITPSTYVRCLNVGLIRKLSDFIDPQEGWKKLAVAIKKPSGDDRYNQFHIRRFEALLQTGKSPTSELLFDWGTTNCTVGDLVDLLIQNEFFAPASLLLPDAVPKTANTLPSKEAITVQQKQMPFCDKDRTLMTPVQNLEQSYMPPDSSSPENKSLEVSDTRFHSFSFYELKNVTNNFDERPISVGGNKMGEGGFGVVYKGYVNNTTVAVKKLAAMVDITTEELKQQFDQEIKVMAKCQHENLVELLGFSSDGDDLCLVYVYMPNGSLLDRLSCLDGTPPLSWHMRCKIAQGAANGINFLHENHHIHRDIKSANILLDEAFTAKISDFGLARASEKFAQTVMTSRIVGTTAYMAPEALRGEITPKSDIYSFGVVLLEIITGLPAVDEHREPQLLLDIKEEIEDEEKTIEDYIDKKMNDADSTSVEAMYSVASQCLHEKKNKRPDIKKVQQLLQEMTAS

STK33 (human) = STK33 (human) (UniProt Q9BYT3)
MAP3K14 (human) = MAP3K14 (human) (UniProt Q99558)
RPS6KA6 KD1 KD2 (human) = RPS6KA6 KD1 KD2 (human) (UniProt Q9UK32)
MAP3K8 (human) = MAP3K8 (human) (UniProt P41279)
PKN1 (human) = PKN1 (human) (UniProt Q16512)
[1] = target: TYK2 JH1 catalytic (human) (UniProt P29597)
ACVR1B (human) = ACVR1B (human) (UniProt P36896)
CSNK1G1 (human) = CSNK1G1 (human) (UniProt Q9HCP0)
MAP2K1 (human) = MAP2K1 (human) (UniProt Q02750)
MAP2K1 (human), sequence (Q02750 whole entry, looked up): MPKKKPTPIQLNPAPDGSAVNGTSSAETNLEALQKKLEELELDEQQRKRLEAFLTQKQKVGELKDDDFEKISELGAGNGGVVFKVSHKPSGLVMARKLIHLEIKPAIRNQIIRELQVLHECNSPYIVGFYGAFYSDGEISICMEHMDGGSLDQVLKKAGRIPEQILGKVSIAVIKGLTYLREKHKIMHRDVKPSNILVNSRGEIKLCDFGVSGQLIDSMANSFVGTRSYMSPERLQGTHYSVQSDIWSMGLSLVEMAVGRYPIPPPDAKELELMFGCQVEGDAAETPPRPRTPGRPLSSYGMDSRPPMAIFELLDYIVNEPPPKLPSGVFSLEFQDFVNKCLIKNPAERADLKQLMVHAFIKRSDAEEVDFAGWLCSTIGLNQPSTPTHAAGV

EPHA3 (human) = EPHA3 (human) (UniProt P29320)
CLK3 (human) = CLK3 (human) (UniProt P49761)
PBK (human) = PBK (human) (UniProt Q96KB5)
RPS6KA2 KD1 KD2 (human) = RPS6KA2 KD1 KD2 (human) (UniProt Q15349)
PRKCI (human) = PRKCI (human) (UniProt P41743)
LRRK2 (human) = LRRK2 (human) (UniProt Q5S007)
TGFBR2 (human) = TGFBR2 (human) (UniProt P37173)
STK39 (human) = STK39 (human) (UniProt Q9UEW8)
CDK5 CDK5R1 p25 (human) = CDK5 CDK5R1 p25 (human) (UniProt Q00535+Q15078)
SGK3 (human) = SGK3 (human) (UniProt Q96BR1)
CLK1 (human) = CLK1 (human) (UniProt P49759)

CCN1/C(=C/C(C)=O)Sc2ccc(OC)cc21
residual activity (YES1 (human)): 91.8% | residual activity (SRC (human)): 94.4% | residual activity (MAP3K10 (human)): 95% | residual activity (MAP2K2 (human)): 86.4% | residual activity (GSK3A (human)): 85.7% | residual activity (MAP3K7 TAB1 (human)): 99.9% | residual activity (EPHA7 (human)): 95.8% | residual activity (EPHB1 (human)): 90.6% | residual activity (PLK1 (human)): 97% | residual activity (PRKACA (human)): 98% | residual activity (TEC (human)): 116% | residual activity (MARK3 (human)): 100% | residual activity (CAMK1 (human)): 88.5% | residual activity (AURKA (human)): 108% | residual activity (DYRK3 (human)): 50.4% | residual activity (PIM1 (human)): 17.9% | residual activity (HIPK3 (human)): 100% | residual activity (CDK4 CCND1 (human)): 92.1% | residual activity (PRKD2 (human)): 69.4% | residual activity (MAP3K2 (human)): 101% | residual activity (IRAK4 (human)): 123% | residual activity (STK33 (human)): 57.4% | residual activity (MAP3K14 (human)): 86.1% | residual activity (RPS6KA6 KD1 KD2 (human)): 89% | residual activity (MAP3K8 (human)): 103% | residual activity (PKN1 (human)): 100% | residual activity [1]: 113% | residual activity (ACVR1B (human)): 109% | residual activity (CSNK1G1 (human)): 87.8% | residual activity (MAP2K1 (human)): 98.7% | residual activity (EPHA3 (human)): 89.9% | residual activity (CLK3 (human)): 95% | residual activity (PBK (human)): 94.8% | residual activity (RPS6KA2 KD1 KD2 (human)): 83.3% | residual activity (PRKCI (human)): 97.8% | residual activity (LRRK2 (human)): 98.1% | residual activity (TGFBR2 (human)): 78.5% | residual activity (STK39 (human)): 95.9% | residual activity (CDK5 CDK5R1 p25 (human)): 87.9% | residual activity (SGK3 (human)): 93.4%

C#Cc1cccc(Nc2ncnc3cc(OCCOC)c(OCCOC)cc23)c1
residual activity (SRC (human)): 77.4% | residual activity (MAP3K10 (human)): 108% | residual activity (MAP2K2 (human)): 105% | residual activity (GSK3A (human)): 99.3% | residual activity (MAP3K7 TAB1 (human)): 88.8% | residual activity (EPHA7 (human)): 69.8% | residual activity (EPHB1 (human)): 100% | residual activity (PLK1 (human)): 100% | residual activity (PRKACA (human)): 93.4% | residual activity (TEC (human)): 96.2% | residual activity (MARK3 (human)): 96.4% | residual activity (CAMK1 (human)): 98.9% | residual activity (AURKA (human)): 75.3% | residual activity (DYRK3 (human)): 83.5% | residual activity (PIM1 (human)): 97% | residual activity (HIPK3 (human)): 102% | residual activity (CDK4 CCND1 (human)): 96% | residual activity (PRKD2 (human)): 85.9% | residual activity (MAP3K2 (human)): 117% | residual activity (IRAK4 (human)): 93.8% | residual activity (STK33 (human)): 90.8% | residual activity (RPS6KA6 KD1 KD2 (human)): 99.1% | residual activity (MAP3K8 (human)): 91.8% | residual activity (PKN1 (human)): 108% | residual activity (ACVR1B (human)): 101% | residual activity (CSNK1G1 (human)): 104% | residual activity (MAP2K1 (human)): 105% | residual activity (EPHA3 (human)): 93.2% | residual activity (CLK3 (human)): 108% | residual activity (CLK1 (human)): 107% | residual activity (PBK (human)): 104% | residual activity (RPS6KA2 KD1 KD2 (human)): 101% | residual activity (PRKCI (human)): 99% | residual activity (TGFBR2 (human)): 91.8% | residual activity (STK39 (human)): 97% | residual activity (CDK5 CDK5R1 p25 (human)): 90.5% | residual activity (SGK3 (human)): 100%

CC(C)(C)c1nc2c3ccc(F)cc3c3c(=O)[nH]ccc3c2[nH]1
residual activity (YES1 (human)): 76.1% | residual activity (SRC (human)): 93.4% | residual activity (MAP3K10 (human)): 89.7% | residual activity (MAP2K2 (human)): 82.1% | residual activity (GSK3A (human)): 121% | residual activity (MAP3K7 TAB1 (human)): 46.6% | residual activity (EPHA7 (human)): 96% | residual activity (EPHB1 (human)): 94.9% | residual activity (PLK1 (human)): 10.5% | residual activity (PRKACA (human)): 97.9% | residual activity (TEC (human)): 106% | residual activity (MARK3 (human)): 55.9% | residual activity (CAMK1 (human)): 79.3% | residual activity (AURKA (human)): 22.3% | residual activity (DYRK3 (human)): 105% | residual activity (PIM1 (human)): 38.6% | residual activity (HIPK3 (human)): 78.6% | residual activity (CDK4 CCND1 (human)): 85.6% | residual activity (PRKD2 (human)): 6.13% | residual activity (MAP3K2 (human)): 33.9% | residual activity (IRAK4 (human)): 96.3% | residual activity (STK33 (human)): 53.8% | residual activity (MAP3K14 (human)): 71.3% | residual activity (RPS6KA6 KD1 KD2 (human)): 33.9% | residual activity (MAP3K8 (human)): 128% | residual activity (PKN1 (human)): 28.3% | residual activity [1]: 1.48% | residual activity (CSNK1G1 (human)): 96.5% | residual activity (MAP2K1 (human)): 94.9% | residual activity (EPHA3 (human)): 89.2% | residual activity (CLK3 (human)): 50.5% | residual activity (CLK1 (human)): 81.6% | residual activity (PBK (human)): 39.1% | residual activity (RPS6KA2 KD1 KD2 (human)): 34.6% | residual activity (PRKCI (human)): 96% | residual activity (LRRK2 (human)): 47.5% | residual activity (TGFBR2 (human)): 58.2% | residual activity (STK39 (human)): 93.8% | residual activity (SGK3 (human)): 96.6%

COc1cc2ncnc(Nc3ccc(F)c(Cl)c3)c2cc1OCCCN1CCOCC1
residual activity (YES1 (human)): 74.4% | residual activity (MAP3K10 (human)): 109% | residual activity (MAP2K2 (human)): 102% | residual activity (GSK3A (human)): 99.7% | residual activity (MAP3K7 TAB1 (human)): 91.3% | residual activity (EPHA7 (human)): 74.3% | residual activity (EPHB1 (human)): 94.8% | residual activity (PLK1 (human)): 97% | residual activity (PRKACA (human)): 96.3% | residual activity (TEC (human)): 104% | residual activity (MARK3 (human)): 94.5% | residual activity (CAMK1 (human)): 102% | residual activity (AURKA (human)): 95.3% | residual activity (DYRK3 (human)): 85% | residual activity (PIM1 (human)): 86.4% | residual activity (HIPK3 (human)): 103% | residual activity (CDK4 CCND1 (human)): 94.3% | residual activity (MAP3K2 (human)): 109% | residual activity (IRAK4 (human)): 78.8% | residual activity (STK33 (human)): 90.4% | residual activity (MAP3K14 (human)): 104% | residual activity (RPS6KA6 KD1 KD2 (human)): 95.2% | residual activity (MAP3K8 (human)): 95.7% | residual activity (PKN1 (human)): 105% | residual activity [1]: 102% | residual activity (ACVR1B (human)): 99.6% | residual activity (CSNK1G1 (human)): 99.5% | residual activity (MAP2K1 (human)): 107% | residual activity (EPHA3 (human)): 94.4% | residual activity (CLK3 (human)): 106% | residual activity (CLK1 (human)): 105% | residual activity (PBK (human)): 102% | residual activity (RPS6KA2 KD1 KD2 (human)): 82.3% | residual activity (PRKCI (human)): 96.9% | residual activity (LRRK2 (human)): 108% | residual activity (TGFBR2 (human)): 93.8% | residual activity (STK39 (human)): 93.5% | residual activity (CDK5 CDK5R1 p25 (human)): 95.4% | residual activity (SGK3 (human)): 98.3%

CS(=O)c1ccc(-c2nc(-c3ccc(F)cc3)c(-c3ccncc3)[nH]2)cc1 (stereo not given)
residual activity (YES1 (human)): 92.6% | residual activity (SRC (human)): 92.6% | residual activity (MAP3K10 (human)): 104% | residual activity (MAP2K2 (human)): 99.9% | residual activity (GSK3A (human)): 94.1% | residual activity (MAP3K7 TAB1 (human)): 94% | residual activity (EPHA7 (human)): 83.1% | residual activity (EPHB1 (human)): 93% | residual activity (PLK1 (human)): 100% | residual activity (PRKACA (human)): 98.9% | residual activity (TEC (human)): 113% | residual activity (MARK3 (human)): 101% | residual activity (CAMK1 (human)): 106% | residual activity (AURKA (human)): 99.5% | residual activity (DYRK3 (human)): 99% | residual activity (PIM1 (human)): 103% | residual activity (HIPK3 (human)): 103% | residual activity (CDK4 CCND1 (human)): 105% | residual activity (MAP3K2 (human)): 95.3% | residual activity (IRAK4 (human)): 130% | residual activity (STK33 (human)): 98.1% | residual activity (MAP3K14 (human)): 118% | residual activity (RPS6KA6 KD1 KD2 (human)): 110% | residual activity (MAP3K8 (human)): 92.1% | residual activity (PKN1 (human)): 96.5% | residual activity [1]: 102% | residual activity (ACVR1B (human)): 127% | residual activity (CSNK1G1 (human)): 95.7% | residual activity (MAP2K1 (human)): 94.8% | residual activity (EPHA3 (human)): 96.1% | residual activity (CLK3 (human)): 99.1% | residual activity (CLK1 (human)): 101% | residual activity (PBK (human)): 102% | residual activity (RPS6KA2 KD1 KD2 (human)): 102% | residual activity (PRKCI (human)): 95.2% | residual activity (LRRK2 (human)): 100% | residual activity (TGFBR2 (human)): 144% | residual activity (STK39 (human)): 93.9% | residual activity (CDK5 CDK5R1 p25 (human)): 90.6% | residual activity (SGK3 (human)): 101%
